What was measured:
[1] = target: T1, M3 muscarinic receptor subtype (Rattus norvegicus, UniProt P08483); experiment: biochemical; assay type: binding
T1 construct: Submandibular glands and heart were isolated and placed in ice cold homogenising buffer; from tissue; host or cells: rat submandibular gland membrane homogenate

[2] = target: T2, M2 muscarinic receptor subtype (Rattus norvegicus, UniProt P10980); experiment: biochemical; assay type: binding
T2 construct: Submandibular glands and heart were isolated and placed in ice cold homogenising buffer; from tissue; host or cells: rat heart membrane homogenate
T2 sequence (P10980 1-466): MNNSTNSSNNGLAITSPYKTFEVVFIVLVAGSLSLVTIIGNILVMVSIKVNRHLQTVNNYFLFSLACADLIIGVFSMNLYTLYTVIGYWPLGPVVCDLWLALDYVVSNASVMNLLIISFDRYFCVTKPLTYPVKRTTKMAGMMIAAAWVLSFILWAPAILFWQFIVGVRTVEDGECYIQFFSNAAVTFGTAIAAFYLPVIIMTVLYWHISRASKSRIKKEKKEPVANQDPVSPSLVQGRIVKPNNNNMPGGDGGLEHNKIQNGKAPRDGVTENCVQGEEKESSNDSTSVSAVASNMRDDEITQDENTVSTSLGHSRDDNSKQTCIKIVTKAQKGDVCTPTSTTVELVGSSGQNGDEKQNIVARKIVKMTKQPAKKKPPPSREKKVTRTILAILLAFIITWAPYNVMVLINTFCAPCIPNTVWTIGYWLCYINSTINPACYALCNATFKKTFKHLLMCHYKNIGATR

isolated rat bladder = experiment: tissue or blood; assay type: cell-based; settings: read-out: Functional Assay pkB

T1 sequence (P08483 whole entry): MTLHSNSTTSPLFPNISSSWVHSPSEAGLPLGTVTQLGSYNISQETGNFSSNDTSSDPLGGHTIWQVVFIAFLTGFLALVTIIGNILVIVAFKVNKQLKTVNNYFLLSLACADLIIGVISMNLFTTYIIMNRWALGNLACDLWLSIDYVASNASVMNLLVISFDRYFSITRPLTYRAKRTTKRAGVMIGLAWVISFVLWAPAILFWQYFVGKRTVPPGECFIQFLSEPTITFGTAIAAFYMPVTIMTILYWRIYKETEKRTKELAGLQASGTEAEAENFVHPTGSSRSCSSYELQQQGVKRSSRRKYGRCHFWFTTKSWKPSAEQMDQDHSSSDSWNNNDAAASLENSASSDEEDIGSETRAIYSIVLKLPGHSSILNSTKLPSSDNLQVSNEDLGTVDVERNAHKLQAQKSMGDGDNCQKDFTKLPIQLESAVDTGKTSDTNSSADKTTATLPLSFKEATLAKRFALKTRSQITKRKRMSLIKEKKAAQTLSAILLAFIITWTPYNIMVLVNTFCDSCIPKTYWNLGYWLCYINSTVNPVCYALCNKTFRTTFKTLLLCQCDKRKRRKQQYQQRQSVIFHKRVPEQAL

## CC(C)=CCCN1C[C@@H]2[C@H](C1)[C@H]2NC(=O)[C@@](O)(c1ccccc1)C1CCC(F)(F)C1 (single isomer, unassigned) [Compound 13B, (2S)-(1α, 5α, 6α)-6-N-[3-(4-methyl-3-pentenyl)-3-azabicyclo[3.1.0]-hexyl-2-[(1R or 1S)-3,3-difluorocyclopentyl]-2-hydroxy-2-phenylacetamide]
[1]
  Ki: 2000 nM
[2]
  Ki: > 10000 nM
Isolated rat bladder
  Kb: 67.6 nM

## CC(C)=CCCN1CC2C(C1)C2NC(=O)C(O)(c1ccccc1)C1CCC(F)(F)C1 (single isomer, unassigned) [Compound 14, (2R)-(1α, 5α, 6α)-6-N-[3-(4-methyl-3-pentenyl)-3-azabicyclo[3.1.0]-hexyl]-2-[(1R or 1S)-3,3-difluorocyclopentyl]-2-hydroxy-2-phenylacetamide]
[1]
  Ki: 1580 nM
[2]
  Ki: > 10000 nM
Isolated rat bladder
  Kb: 132 nM

## O=C(N[C@H]1[C@@H]2CN(CCc3ccc4c(c3)OCO4)C[C@@H]21)[C@](O)(c1ccccc1)C1CCC(F)(F)C1 (stereo partly drawn) [Compound 9, (2R)-(1α, 5α, 6α)-6-N-[3-(2-(3,4-methylenedioxyphenyl)ethyl]-3-azabicyclo[3.1.0]-hexyl]-2-[(1R or 1S)-3,3-difluorocyclopentyl]-2-hydroxy-2-phenylacetamide]
[1]
  Ki: 79.4 nM
[2]
  Ki: 4270 nM

## O=C(N[C@H]1[C@@H]2CN(CCc3ccc4c(c3)OCO4)C[C@@H]21)[C@@](O)(c1ccccc1)C1CCC(F)C1 (stereo partly drawn) [Compound 11, (2S)-(1α, 5α, 6α)-6-N-[3-(2-(3,4-methylenedioxyphenyl)ethyl]-3-azabicyclo[3.1.0]-hexyl]-2-[(1R or 1S, 3R or 3S)-3-fluorocyclopentyl]-2-hydroxy-2-phenylacetamide]
[1]
  Ki: 63.1 nM
[2]
  Ki: 6310 nM

Source: patent US7560479B2 (priority 2003, dated 2009)
